pIC50, pKi: −log10 of the molar value. Calls of active or inactive are those of the source. No cut-off for these calls is given here.
How the values were obtained:
[1] = biological target: Thrombospondin-1 (Homo sapiens) (UniProt P07996); assay: Inhibition of TGFbeta2-induced THBS1 protein expression in human MDA-MB-231 cells at 10 uM incubated for 48 hrs by Western blotting analysis; format: cell-based
[2] = biological target: Thrombospondin-1 (Homo sapiens) (UniProt P07996); assay: Inhibition of TGFbeta1-induced THBS1 protein expression in human MDA-MB-231 cells at 10 uM incubated for 48 hrs by Western blotting analysis; format: cell-based
[3] = biological target: ELAV-like protein 1 (Homo sapiens) (UniProt Q15717); assay: Inhibition of TGFbeta2-induced HuR protein expression in human MDA-MB-231 cells at 10 uM incubated for 48 hrs by Western blotting analysis; format: cell-based
Sequence of ELAV-like protein 1 (Homo sapiens) (Q15717 whole entry): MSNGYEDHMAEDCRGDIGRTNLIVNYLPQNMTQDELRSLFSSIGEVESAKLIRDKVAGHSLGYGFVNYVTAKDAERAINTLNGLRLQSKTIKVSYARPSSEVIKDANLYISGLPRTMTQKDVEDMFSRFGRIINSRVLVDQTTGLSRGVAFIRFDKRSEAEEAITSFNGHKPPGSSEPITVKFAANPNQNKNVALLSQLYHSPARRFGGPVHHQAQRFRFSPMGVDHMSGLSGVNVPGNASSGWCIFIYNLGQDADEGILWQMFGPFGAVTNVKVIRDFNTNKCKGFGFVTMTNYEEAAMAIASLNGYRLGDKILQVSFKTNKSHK

MDA-MB-231 [4] = assay: Inhibition of HuR-TGFB2 mRNA binding in human MDA-MB-231 cells incubated for 6 hrs by RNP immunoprecipitation assay; format: cell-based
[5] = biological target: RNA-binding protein Musashi homolog 2 (Homo sapiens) (UniProt Q96DH6); assay: Inhibition of TGFbeta2-induced Msi2 protein expression in human MDA-MB-231 cells at 10 uM incubated for 48 hrs by Western blotting analysis; format: cell-based
Sequence of RNA-binding protein Musashi homolog 2 (Homo sapiens) (Q96DH6 whole entry): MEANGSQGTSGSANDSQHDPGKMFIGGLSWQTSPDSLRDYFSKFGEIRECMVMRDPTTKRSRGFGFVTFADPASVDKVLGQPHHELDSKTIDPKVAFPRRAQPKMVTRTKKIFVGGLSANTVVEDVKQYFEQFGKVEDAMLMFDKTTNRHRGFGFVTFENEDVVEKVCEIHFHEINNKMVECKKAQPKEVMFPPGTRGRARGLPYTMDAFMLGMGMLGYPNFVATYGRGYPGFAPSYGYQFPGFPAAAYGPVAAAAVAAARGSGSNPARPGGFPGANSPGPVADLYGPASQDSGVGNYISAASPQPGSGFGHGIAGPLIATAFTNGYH

[6] = biological target: ELAV-like protein 1 (Homo sapiens) (UniProt Q15717); assay: Inhibition of TGFbeta1-induced HuR protein expression in human MDA-MB-231 cells at 10 uM incubated for 48 hrs by Western blotting analysis; format: cell-based
[7] = biological target: RNA-binding protein Musashi homolog 2 (Homo sapiens) (UniProt Q96DH6); assay: Inhibition of TGFbeta1-induced Msi2 protein expression in human MDA-MB-231 cells at 10 uM incubated for 48 hrs by Western blotting analysis; format: cell-based
MDA-MB-231 [8] = assay: Cytotoxicity against human MDA-MB-231 cells assessed as inhibition of cell growth by MTT assay; format: functional, cell-based
[9] = Inhibition of full-length HuR-ARE fluorescein-labeled Msi1 mRNA binding (unknown origin) incubated for 2 hrs by fluorescence polarization assay; set-up: species or system Homo sapiens
MDA-MB-231 [10] = assay: Cytotoxicity against HuR knockout 1 human MDA-MB-231 cells assessed as inhibition of cell growth by MTT assay (reference value: 5.320 uM); format: functional, cell-based
MDA-MB-231 [11] = assay: Cytotoxicity against HuR knockout 2 human MDA-MB-231 cells assessed as inhibition of cell growth by MTT assay (reference value: 5.320 uM); format: functional, cell-based
[12] = biological target: ELAV-like protein 1 (Homo sapiens) (UniProt Q15717); assay: Thermal stabilization of HuR in human MDA-MB-231 cells at 20 uM at 42 to 54 degreeC incubated for 1 hr by western blot based cellular thermal shift assay; format: cell-based
MDA-MB-231 [13] = assay: Inhibition of HuR-Bcl-2 mRNA binding in human MDA-MB-231 cells at 10 uM incubated for 6 hrs by RNP immunoprecipitation assay; format: cell-based
MDA-MB-231 [14] = assay: Inhibition of HuR-Msi2 mRNA binding in human MDA-MB-231 cells at 10 uM incubated for 6 hrs by RNP immunoprecipitation assay; format: cell-based
MDA-MB-231 [15] = assay: Inhibition of HuR-XIAP mRNA binding in human MDA-MB-231 cells at 10 uM incubated for 6 hrs by RNP immunoprecipitation assay; format: cell-based
MDA-MB-231 [16] = assay: Inhibition of HuR-16-nt biotinylated ARE Msi1 mRNA binding in human MDA-MB-231 cells at 20 uM by Western blotting analysis based pull-down assay; format: cell-based
MDA-MB-231 [17] = assay: Downregulation of Bcl-2 protein expression in human MDA-MB-231 cells incubated for 48 hrs by Western blotting analysis; format: functional, cell-based; conditions: dose 5-10 µM
MDA-MB-231 [18] = assay: Downregulation of Msi2 protein expression in human MDA-MB-231 cells incubated for 48 hrs by Western blotting analysis; format: functional, cell-based; conditions: dose 5-10 µM
MDA-MB-231 [19] = assay: Downregulation of XIAP protein expression in human MDA-MB-231 cells incubated for 48 hrs by Western blotting analysis; format: functional, cell-based; conditions: dose 5-10 µM
MDA-MB-231 [20] = assay: Downregulation of HuR protein expression in human MDA-MB-231 cells at 5 to 10 uM incubated for 48 hrs by Western blotting analysis; format: functional, cell-based; conditions: dose 5-10 µM
MDA-MB-231 [21] = assay: Inhibition of cell invasion of human MDA-MB-231 cells at 10 uM incubated for 24 hrs by crystal violet staining based analysis; format: functional
MDA-MB-231 [22] = assay: Inhibition of HuR-TGFB2 mRNA binding in human MDA-MB-231 cells assessed as half life of TGFB2 in presence of actinomycin D (reference value: 7.202 hrs); format: cell-based
[23] = Antitumor activity against human 2LMP cells xenografted athymic NCr-nu/nu mouse assessed as tumor growth inhibition at 50 mg/kg, ip administered 5 times a week for 3 weeks; format: functional; conditions: 504 h, read-out: TGI
[24] = Toxicity in athymic NCr-nu/nu mouse xenografted with human 2LMP cells assessed as effect on body weight gain at 50 mg/kg, ip administered 5 times a week for 3 weeks; format: organism-based; conditions: in vivo, 504 h
MDA-MB-231 [25] = assay: Antitumor activity against human MDA-MB-231 cells xenografted athymic NCr-nu/nu mouse assessed as reduction in tumor size at 50 mg/kg, ip administered 5 times a week for 3 weeks; format: functional, organism-based
MDA-MB-231 [26] = assay: Antitumor activity against human MDA-MB-231 cells xenografted athymic NCr-nu/nu mouse assessed as reduction in tumor size at 50 mg/kg, ip administered 5 times a week for 3 weeks in presence of docetaxel; format: functional, organism-based
MDA-MB-231 [27] = assay: Antitumor activity against human MDA-MB-231 cells xenografted athymic NCr-nu/nu mouse assessed as tumor growth delay by measuring tumor size at 400 mm^3 at 50 mg/kg, ip administered 5 times a week for 3 weeks (reference value: 15 days); format: functional
MDA-MB-231 [28] = assay: Antitumor activity against human MDA-MB-231 cells xenografted athymic NCr-nu/nu mouse assessed as tumor growth delay by measuring tumor size at 400 mm^3 at 50 mg/kg, ip administered 5 times a week for 3 weeks in presence of docetaxel (reference value: 15 days); format: functional
MDA-MB-231 [29] = assay: Inhibition of HuR-THBS1 mRNA binding in human MDA-MB-231 cells incubated for 6 hrs by RNP immunoprecipitation assay; format: cell-based
MDA-MB-231 [30] = assay: Inhibition of HuR-THBS1 mRNA binding in human MDA-MB-231 cells assessed as half life of THBS1 in presence of actinomycin D (reference value: 10.46 hrs); format: cell-based
MDA-MB-231 [31] = assay: Downregulation of TGFB2 mRNA expression in human MDA-MB-231 cells transfected with THBS1-ORF at 5 to 10 uM incubated for 24 hrs; format: functional, cell-based; conditions: dose 5-10 µM

Sequence of Thrombospondin-1 (Homo sapiens) (P07996 19-1170 limits assumed): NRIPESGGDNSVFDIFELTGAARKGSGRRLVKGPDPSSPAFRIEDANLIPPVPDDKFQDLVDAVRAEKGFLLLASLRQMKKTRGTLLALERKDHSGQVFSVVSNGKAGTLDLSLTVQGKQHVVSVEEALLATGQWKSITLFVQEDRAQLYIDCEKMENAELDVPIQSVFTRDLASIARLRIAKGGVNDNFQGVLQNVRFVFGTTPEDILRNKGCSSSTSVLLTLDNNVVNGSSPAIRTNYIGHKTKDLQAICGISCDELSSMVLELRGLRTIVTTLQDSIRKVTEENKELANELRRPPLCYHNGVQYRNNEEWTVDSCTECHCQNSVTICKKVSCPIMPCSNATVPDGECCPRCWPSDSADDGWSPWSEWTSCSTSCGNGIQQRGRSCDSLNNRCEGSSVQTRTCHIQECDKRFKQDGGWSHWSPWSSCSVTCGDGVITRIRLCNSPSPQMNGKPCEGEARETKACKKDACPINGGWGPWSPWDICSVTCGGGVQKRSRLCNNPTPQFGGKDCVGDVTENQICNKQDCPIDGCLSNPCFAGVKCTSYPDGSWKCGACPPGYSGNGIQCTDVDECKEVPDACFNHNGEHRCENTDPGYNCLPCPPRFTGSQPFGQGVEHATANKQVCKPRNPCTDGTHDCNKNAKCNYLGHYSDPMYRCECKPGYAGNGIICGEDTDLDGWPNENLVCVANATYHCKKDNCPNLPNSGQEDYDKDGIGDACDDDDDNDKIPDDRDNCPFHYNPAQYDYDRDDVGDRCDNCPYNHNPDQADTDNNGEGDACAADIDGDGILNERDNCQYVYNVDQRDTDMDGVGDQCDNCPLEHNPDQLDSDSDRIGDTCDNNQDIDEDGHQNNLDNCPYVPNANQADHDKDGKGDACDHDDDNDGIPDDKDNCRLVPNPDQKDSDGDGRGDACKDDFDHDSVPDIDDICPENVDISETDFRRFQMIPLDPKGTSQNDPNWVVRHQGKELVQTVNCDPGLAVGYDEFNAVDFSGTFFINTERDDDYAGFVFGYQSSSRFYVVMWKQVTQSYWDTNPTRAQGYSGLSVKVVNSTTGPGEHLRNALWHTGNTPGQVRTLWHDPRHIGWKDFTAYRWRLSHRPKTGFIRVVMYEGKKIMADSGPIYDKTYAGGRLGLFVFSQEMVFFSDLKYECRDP

With `CC(C)(C)c1ccc(C(=O)Nc2ccc3[nH]c(C(=O)NO)cc3c2)cc1` the inhibition [1] was “Active”, the inhibition [2] was “Active” and the inhibition [3] was “Active”. For the same molecule, the inhibition (MDA-MB-231 [4]) was “Active”, the inhibition [5] was “Active” and the inhibition [6] was “Active”. The inhibition [7] was “Active”, the pIC50 (MDA-MB-231 [8]) was 5.32 and the pIC50 [9] was 5.56. For the same molecule, the pKi [9] was 6.19, the pIC50 (MDA-MB-231 [10]) was 4.79 and the pIC50 (MDA-MB-231 [11]) was 4.90. The Activity [12] was “Active”, the inhibition (MDA-MB-231 [13]) was “Active” and the inhibition (MDA-MB-231 [14]) was “Active”. For the same molecule, the inhibition (MDA-MB-231 [15]) was “Active”, the inhibition (MDA-MB-231 [16]) was “Active” and the Activity (MDA-MB-231 [17]) was “Dose-Dependent Effect”. For the same molecule, the Activity (MDA-MB-231 [18]) was “Dose-Dependent Effect”, the Activity (MDA-MB-231 [19]) was “Dose-Dependent Effect” and the Activity (MDA-MB-231 [20]) was “inactive”. The inhibition (MDA-MB-231 [21]) was “Active”, the T1/2 (MDA-MB-231 [22]) was 4.76 h and the inhibition in vivo at 50 mg/kg [23] was 35%. For the same molecule, the Activity [24] was “Non-Toxic”, the Activity (MDA-MB-231 [25]) was “Active” and the Activity (MDA-MB-231 [26]) was “Active”. For the same molecule, the Time (MDA-MB-231 [27]) was 18 days, the Time (MDA-MB-231 [28]) was 32 days and the inhibition (MDA-MB-231 [29]) was “Active”. The T1/2 (MDA-MB-231 [30]) was 6.15 h and the Activity (MDA-MB-231 [31]) was “Active”.
